PubChem BioAssay (NCI)
Values joined by “and” are separate entries in the source; they are usually repeats but may differ in a detail not shown here. Equal values may be shown once.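 96-well plates; 48 h exposure; 5 concentrations. Endpoints by linear interpolation between flanking doses. Not reached: highest tested concentration assigned. GI50 = concentration required for 50% inhibition of growth. The concentration for full growth arrest is given as TGI.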

Columns and labels:
Experiment in all cases: DTP human tumour cell line panel, 48 h
A498 renal = tested on: A498 renal
HCT-15 colon = tested on: HCT-15 colon
RPMI-8226 leukemia = tested on: RPMI-8226 leukemia
SF-295 CNS = tested on: SF-295 CNS
SF-539 CNS = tested on: SF-539 CNS
SNB-75 CNS = tested on: SNB-75 CNS
UACC-62 melanoma = tested on: UACC-62 melanoma
UO-31 renal = tested on: UO-31 renal
HS 578T breast = tested on: HS 578T breast
MDA-MB-231 breast = tested on: MDA-MB-231 breast

| SMILES | TGI (A498 renal) | TGI (HCT-15 colon) | TGI (RPMI-8226 leukemia) | TGI (SF-295 CNS) | TGI (SF-539 CNS) | TGI (SNB-75 CNS) | TGI (UACC-62 melanoma) | TGI (UO-31 renal) | GI50 (A498 renal) | GI50 (HCT-15 colon) | GI50 (HS 578T breast) | TGI (HS 578T breast) | GI50 (MDA-MB-231 breast) | TGI (MDA-MB-231 breast) | GI50 (RPMI-8226 leukemia) | GI50 (SF-295 CNS) | GI50 (SF-539 CNS) | GI50 (SNB-75 CNS) | GI50 (UO-31 renal) | GI50 (UACC-62 melanoma) |
| --- | --- | --- | --- | --- | --- | --- | --- | --- | --- | --- | --- | --- | --- | --- | --- | --- | --- | --- | --- | --- |
| Cc1c(C(=O)C/C(=N/NC(=O)C[n+]2ccccc2)C(=O)Nc2ccccc2)[n+](=O)c2ccccc2n1O | > 100 µM | > 100 µM | > 100 µM | > 100 µM | > 100 µM | > 100 µM | > 100 µM | > 100 µM |  |  |  |  |  |  |  |  |  |  |  |  |
| CC(=O)O[C@]1(C)OC(=O)[C@@H](C)N1[N+](=O)[O-] | > 100 µM | > 100 µM | > 100 µM | > 100 µM | > 100 µM | > 100 µM | > 100 µM | > 100 µM |  |  |  |  |  |  |  |  |  |  |  |  |
| COc1c(NC(C)=O)cc(C)cc1NC(C)=O | > 100 µM | > 100 µM | > 100 µM | > 100 µM | > 100 µM | > 100 µM | > 100 µM |  |  |  |  |  |  |  |  |  |  |  |  |  |
| Cc1noc(C)c1-c1cc(O)cc(C(O)c2ccccc2)c1 (centres undefined) | 20.3 µM | > 100 µM | 9.64 µM | > 100 µM | > 100 µM | > 100 µM |  | > 100 µM | 2.6 µM | 3.52 µM | 1.93 µM | 90.7 µM | 3.92 µM | > 100 µM | 1.94 µM | 7.31 µM | 4.56 µM | 0.423 µM | 1.08 µM |  |
| Cc1cc(C2=NNC(=O)Cc3cc4c(cc32)OCCO4)cc(C)c1N | 99.4 µM | > 100 µM |  | 2.87 µM | 8.91 µM | 4.32 µM | > 100 µM | > 100 µM | 3.31 µM | 1.25 µM | 3.05 µM | > 100 µM | 6.25 µM | > 100 µM |  | 0.47 µM | 2.73 µM | 1.25 µM | 3.83 µM | 3.59 µM |
| C[C@]12CCc3nonc3C1CC[C@@H]1C2CC[C@]2(C)NC(=O)CCC12 (some centres undefined) | > 100 µM | > 100 µM | > 100 µM | > 100 µM | > 100 µM | > 100 µM | > 100 µM | > 100 µM |  |  |  |  |  |  |  |  |  |  |  |  |
| CN=C(NC#N)NCCSCc1nc[nH]c1C | > 100 µM | > 100 µM |  | > 100 µM | > 100 µM | 79.3 µM | > 100 µM | > 100 µM |  |  |  | > 100 µM |  | > 100 µM |  |  |  |  |  |  |
| C/C(=N\N=C(\[Se])N1CCN(c2ccccn2)CC1)c1ccccn1 | 18.1 µM | 17.3 µM | 0.486 µM | 16.7 µM | 12.2 µM | 17.5 µM |  | > 40 µM |  | 0.0118 µM |  | 68.2 µM |  | 17.5 µM | 0.00477 µM | 0.0204 µM | 0.407 µM |  | 0.138 µM |  |
| CC1(C)CCc2cc3c(cc2O1)OCC1c2cc4c(cc2OC31)OCO4 (centres undefined) | > 100 µM | > 100 µM | > 100 µM | > 100 µM | > 100 µM | > 100 µM | > 100 µM | > 100 µM |  |  |  |  |  |  |  |  |  |  |  |  |
| CC(=O)c1cc2c(cc1Nc1c3ccccc3nc3occ(Cl)c13)OCO2 | 0.373 µM |  | 0.139 µM | 0.188 µM | 0.0998 µM |  |  | > 100 µM | 0.105 µM | 0.328 µM | 0.109 µM | > 69.6 µM | 0.283 µM | 0.613 µM | 0.0539 µM | 0.0402 µM | 0.0302 µM |  | 1.09 µM | 0.271 µM |
| Cn1nnnc1N/N=C/c1ccccc1 |  | > 10 µM | > 10 µM | > 10 µM | > 10 µM | > 10 µM | > 10 µM | > 10 µM |  |  |  | > 10 µM |  | > 10 µM |  |  |  |  |  |  |
| COc1ccc2c(c1)[n+]([O-])c(-c1ccccc1)c(N)[n+]2[O-] | > 100 µM | > 100 µM | > 100 µM | > 100 µM | > 100 µM | > 100 µM | > 100 µM | > 100 µM |  |  |  |  |  |  |  |  |  |  |  |  |
| O=C(c1cc2ccccc2o1)N(Cc1ccccc1)c1ccccc1 | 89.1 µM | 41 µM | 49.8 µM | > 100 µM |  | > 100 µM | 28.1 µM | 51.8 µM |  |  |  |  |  |  |  |  |  |  |  |  |
| CC(C)(C)CC(C)(C)c1cc2c(O)c(c1)Cc1cc(C(C)(C)CC(C)(C)C)cc(c1O)Cc1cc(C(C)(C)CC(C)(C)C)cc(c1O)Cc1cc(C(C)(C)CC(C)(C)C)cc(c1O)Cc1cc(C(C)(C)CC(C)(C)C)cc(c1O)Cc1cc(C(C)(C)CC(C)(C)C)cc(c1O)C2 |  | > 100 µM | > 100 µM | > 100 µM | > 100 µM | > 100 µM | > 100 µM | > 100 µM |  |  |  |  |  |  |  |  |  |  |  |  |
| COc1ccc2nc3cc(Cl)ccc3c(N3CCN(c4ccnc(N5CCOCC5)n4)CC3)c2c1 | > 100 µM | > 100 µM | 10.6 µM | > 100 µM | > 100 µM | 65.3 µM | > 100 µM | > 100 µM | 27.8 µM | 3.28 µM | 12.3 µM | > 100 µM |  |  | 2.92 µM | > 100 µM | > 100 µM | 10.6 µM | > 100 µM | > 100 µM |
| COC(=O)C1=C(C(=O)OC)C23CC1C1C(C(=O)OC)=C(C(=O)OC)C12C1C=CC3C2C(=O)OC(=O)C21 (centres undefined) |  | > 100 µM | > 100 µM | > 100 µM | > 100 µM | 47.7 µM | > 100 µM | > 100 µM |  |  |  |  |  |  |  |  |  |  |  |  |
| O=C(CCCN1CCOCC1)Nc1ccc(Cn2nnc3c2C(=O)c2nnn(Cc4ccc(NC(=O)CCCN5CCOCC5)cc4)c2C3=O)cc1 | > 100 µM | > 100 µM | 7.48 µM | > 100 µM | 4.71 µM | 3.24 µM | 5.86 µM | > 100 µM | > 100 µM | > 100 µM | 2.79 µM | 7.76 µM |  |  | 2.18 µM | > 100 µM | 2.17 µM | 1.83 µM | > 100 µM | 2.06 µM |
| CCOc1cc2c(cc1O)/C(=N\O)C[C@@H]1[C@@H]2CC[C@]2(C)[C@@H](O)CC[C@@H]12 | > 100 µM | > 36.8 µM | 0.0632 µM | 0.081 µM and 0.0784 µM |  | 0.0166 µM | 28.8 µM | 46.1 µM | 0.604 µM |  | 0.0271 µM | > 82.9 µM |  |  |  | 0.00322 µM and 0.0266 µM | 0.0269 µM | 0.00232 µM | 0.984 µM | 0.00607 µM |
| O=C1OCCC1C(O)C1c2ccccc2-c2ccccc21 (centres undefined) | > 100 µM |  | > 100 µM | > 100 µM |  | > 100 µM | > 100 µM | > 100 µM |  |  |  |  |  |  |  |  |  |  |  |  |
